The results in this text go back to ChEMBL document CHEMBL5291721, “A preclinical secondary pharmacology resource illuminates target-adverse drug reaction associations of marketed drugs” (Nat Commun, 2023).

Test [1] addresses T1, Alpha-2C adrenergic receptor (Homo sapiens, UniProt P18825).
T1 sequence (P18825 whole entry): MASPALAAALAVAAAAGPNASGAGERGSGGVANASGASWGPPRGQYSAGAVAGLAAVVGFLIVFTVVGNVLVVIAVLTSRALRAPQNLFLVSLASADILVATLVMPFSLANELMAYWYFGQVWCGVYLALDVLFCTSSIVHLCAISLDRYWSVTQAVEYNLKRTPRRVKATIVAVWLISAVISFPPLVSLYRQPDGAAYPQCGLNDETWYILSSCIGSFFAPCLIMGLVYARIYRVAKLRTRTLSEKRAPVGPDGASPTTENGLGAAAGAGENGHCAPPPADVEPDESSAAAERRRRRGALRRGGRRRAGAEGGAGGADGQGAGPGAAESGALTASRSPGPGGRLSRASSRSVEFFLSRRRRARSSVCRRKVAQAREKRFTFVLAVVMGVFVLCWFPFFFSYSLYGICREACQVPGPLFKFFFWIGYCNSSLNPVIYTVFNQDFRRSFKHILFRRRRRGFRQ
The format is functional.

The target of test [2] is T2, Alpha-1A adrenergic receptor (Homo sapiens, UniProt P35348).
T2 sequence (P35348 whole entry): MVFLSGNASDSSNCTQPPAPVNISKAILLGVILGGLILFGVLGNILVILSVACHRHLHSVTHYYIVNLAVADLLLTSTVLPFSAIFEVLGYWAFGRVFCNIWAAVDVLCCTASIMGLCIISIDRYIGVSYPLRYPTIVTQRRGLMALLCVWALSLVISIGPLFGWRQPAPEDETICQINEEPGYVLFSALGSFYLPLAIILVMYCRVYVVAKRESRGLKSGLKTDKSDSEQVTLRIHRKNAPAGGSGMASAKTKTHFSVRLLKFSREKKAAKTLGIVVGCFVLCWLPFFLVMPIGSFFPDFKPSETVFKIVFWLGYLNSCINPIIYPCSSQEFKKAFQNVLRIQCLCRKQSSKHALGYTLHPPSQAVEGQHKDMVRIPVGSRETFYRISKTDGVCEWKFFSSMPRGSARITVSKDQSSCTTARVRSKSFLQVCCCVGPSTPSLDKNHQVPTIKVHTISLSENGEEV
The format is functional, cell-based.

The target of another test is T3, Adenosine receptor A1 (Homo sapiens, UniProt P30542).
T3 sequence (P30542 whole entry): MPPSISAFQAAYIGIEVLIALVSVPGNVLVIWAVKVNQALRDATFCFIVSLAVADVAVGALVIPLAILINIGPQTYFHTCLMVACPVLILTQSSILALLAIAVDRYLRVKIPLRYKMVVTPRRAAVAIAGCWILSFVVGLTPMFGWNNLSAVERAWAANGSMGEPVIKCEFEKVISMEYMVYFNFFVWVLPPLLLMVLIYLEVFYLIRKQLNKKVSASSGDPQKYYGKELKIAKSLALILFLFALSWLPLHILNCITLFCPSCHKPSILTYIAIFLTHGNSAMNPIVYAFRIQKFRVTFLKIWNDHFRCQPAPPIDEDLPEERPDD

Test [3] addresses T4, Alpha-2A adrenergic receptor (Homo sapiens, UniProt P08913).
T4 sequence (P08913 whole entry): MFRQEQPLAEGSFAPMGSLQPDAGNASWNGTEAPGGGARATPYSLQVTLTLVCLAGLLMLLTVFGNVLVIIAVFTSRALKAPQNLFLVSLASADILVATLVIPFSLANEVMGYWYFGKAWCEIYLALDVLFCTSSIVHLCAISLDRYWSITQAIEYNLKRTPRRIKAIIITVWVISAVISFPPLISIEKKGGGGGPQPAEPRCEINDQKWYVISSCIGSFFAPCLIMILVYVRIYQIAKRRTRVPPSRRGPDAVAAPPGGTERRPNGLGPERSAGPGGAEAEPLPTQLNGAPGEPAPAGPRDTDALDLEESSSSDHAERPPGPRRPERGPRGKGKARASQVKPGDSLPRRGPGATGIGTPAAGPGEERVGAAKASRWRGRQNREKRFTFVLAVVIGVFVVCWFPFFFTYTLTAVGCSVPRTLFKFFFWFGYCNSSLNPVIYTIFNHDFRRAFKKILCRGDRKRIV
The format is functional, cell-based.

A further test deals with Melanocortin receptor 3 (Homo sapiens, UniProt P41968).
Sequence of Melanocortin receptor 3 (P41968 whole entry): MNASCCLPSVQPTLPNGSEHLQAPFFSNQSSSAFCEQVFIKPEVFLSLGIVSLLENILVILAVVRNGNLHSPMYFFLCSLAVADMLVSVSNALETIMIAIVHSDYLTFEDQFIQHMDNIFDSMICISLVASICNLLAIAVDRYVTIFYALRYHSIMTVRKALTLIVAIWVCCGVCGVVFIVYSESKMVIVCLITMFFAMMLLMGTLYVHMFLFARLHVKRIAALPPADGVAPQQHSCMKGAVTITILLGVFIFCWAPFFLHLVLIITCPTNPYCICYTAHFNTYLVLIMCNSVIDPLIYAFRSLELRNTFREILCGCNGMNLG
The target of test [4] is T5, 5-hydroxytryptamine receptor 2C (Homo sapiens, UniProt P28335).
T5 sequence (P28335 whole entry): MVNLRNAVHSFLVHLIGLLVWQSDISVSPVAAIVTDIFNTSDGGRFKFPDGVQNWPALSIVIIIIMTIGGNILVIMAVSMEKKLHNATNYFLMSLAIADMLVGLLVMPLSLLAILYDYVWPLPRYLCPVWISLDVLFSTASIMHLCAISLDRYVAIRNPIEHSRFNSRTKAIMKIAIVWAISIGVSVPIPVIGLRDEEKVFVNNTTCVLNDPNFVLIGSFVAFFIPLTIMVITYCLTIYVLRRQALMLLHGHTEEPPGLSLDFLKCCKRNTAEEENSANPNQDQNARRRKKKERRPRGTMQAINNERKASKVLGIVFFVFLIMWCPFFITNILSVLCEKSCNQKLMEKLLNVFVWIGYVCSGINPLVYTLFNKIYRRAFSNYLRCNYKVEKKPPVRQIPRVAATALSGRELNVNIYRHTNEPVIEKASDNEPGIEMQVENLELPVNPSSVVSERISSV

Molecules are shown by their SMILES.
Further: assay procedure not described here.

`CCOc1nc2cccc(C(=O)O)c2n1Cc1ccc(-c2ccccc2-c2nnn[nH]2)cc1`: the AC50 (commonly the concentration at which the activity in the assay is half-maximal) in test [1] is > 30 µM; in test [2], > 30 µM; at Adenosine receptor A1 it was > 30 µM; in test [3], > 30 µM; at Melanocortin receptor 3, > 30 µM; in test [4], 14 µM.

Take `CCOc1cc([C@@H](CS(C)(=O)=O)N2C(=O)c3cccc(NC(C)=O)c3C2=O)ccc1OC`: the AC50 (in test [1]; in test [2]; at Adenosine receptor A1; in test [3]; on Melanocortin receptor 3; in test [4]) was > 30 µM each time.

With `CC(=O)Nc1ccc(CC(=O)O)cc1` [ACTARIT], the AC50 (in test [1]; in test [2]; on Adenosine receptor A1; in test [3]; at Melanocortin receptor 3; in test [4]) was > 30 µM in each case.

Turning to `CC(C(=O)O)c1ccc2oc(-c3ccc(Cl)cc3)nc2c1` (configuration not stated) [BENOXAPROFEN], the AC50 was > 30 µM in test [1]; 23 µM in test [2]; > 30 µM on Adenosine receptor A1; > 30 µM in test [3]; > 30 µM on Melanocortin receptor 3; > 30 µM in test [4].

As for `CC1(C)S[C@@H]2[C@H](NC(=O)C(C(=O)O)c3ccccc3)C(=O)N2[C@H]1C(=O)O` (some centres not stated) [CARBENICILLIN], the AC50 (in test [1]; in test [2]; on Adenosine receptor A1; in test [3]; at Melanocortin receptor 3; in test [4]) was > 30 µM each time.

For the compound `Cc1nnc(SCC2=C(C(=O)O)N3C(=O)[C@@H](NC(=O)Cn4cnnn4)[C@H]3SC2)s1` [CEFAZOLIN], the AC50 (in test [1]; in test [2]; at Adenosine receptor A1; in test [3]; on Melanocortin receptor 3; in test [4]) was > 300 µM in each case.

In the case of `CC=CC1=C(C(=O)O)N2C(=O)[C@@H](NC(=O)[C@H](N)c3ccc(O)cc3)[C@H]2SC1` [CEFPROZIL], the AC50 (in test [1]; in test [2]; on Adenosine receptor A1; in test [3]; at Melanocortin receptor 3; in test [4]) was > 30 µM each time.

`CC(C)(O/N=C(\C(=O)N[C@@H]1C(=O)N2C(C(=O)[O-])=C(C[n+]3ccccc3)CS[C@H]12)c1csc(N)n1)C(=O)O` [CEFTAZIDIME]: the AC50 (in test [1]; in test [2]; at Adenosine receptor A1; in test [3]; on Melanocortin receptor 3; in test [4]) was > 300 µM in each case.

Take `CC(C)NC(=N)NC(=N)Nc1ccc(Cl)c(Cl)c1` [CHLORPROGUANIL]: the AC50 in test [1] was 8.9 µM; in test [2] it was 12 µM; in test [3] it was > 30 µM; in test [4], 7.9 µM.

Take `CCCNC(=O)NS(=O)(=O)c1ccc(Cl)cc1` [CHLORPROPAMIDE]: the AC50 in test [1] is > 10 µM; in test [2], > 30 µM; on Adenosine receptor A1 it was > 30 µM; in test [3], > 10 µM; on Melanocortin receptor 3 it was > 30 µM; in test [4] it was > 30 µM.

As for `C[N+](C)(C)CCOP(=O)(O)OP(=O)([O-])OC[C@H]1O[C@@H](n2ccc(N)nc2=O)[C@H](O)[C@@H]1O` [CITICOLINE], the AC50 in test [1], in test [2], in test [3] and in test [4] was > 30 µM throughout.

Turning to `Clc1ccc(Cn2c(CN3CCCC3)nc3ccccc32)cc1` [CLEMIZOLE], the AC50 is > 30 µM in test [1]; 13 µM in test [2]; > 30 µM at Adenosine receptor A1; > 10 µM in test [3]; > 30 µM at Melanocortin receptor 3; > 30 µM in test [4].

As for `CCC(=O)O[C@]1(C(=O)CCl)[C@@H](C)C[C@H]2[C@@H]3CCC4=CC(=O)C=C[C@]4(C)[C@@]3(F)[C@@H](O)C[C@@]21C` [CLOBETASOL PROPIONATE], the AC50 (in test [1]; in test [2]; on Adenosine receptor A1; in test [3]; at Melanocortin receptor 3; in test [4]) was > 30 µM each time.

For the compound `CNC[C@H](O)c1ccc(O)c(O)c1` [EPINEPHRINE], the AC50 (on Adenosine receptor A1; on Melanocortin receptor 3; in test [4]) was > 30 µM throughout.

Consider `COc1ccccc1OC1(C)OC(=O)c2ccccc2O1` (configuration not stated) [GUAIMESAL], for which the AC50 at Adenosine receptor A1 and on Melanocortin receptor 3 was > 30 µM each time.

As for `CC[C@H](C)C(=O)O[C@H]1C[C@@H](C)C=C2C=C[C@H](C)[C@H](CC[C@@H]3C[C@@H](O)CC(=O)O3)[C@H]21` [LOVASTATIN], the AC50 is > 10 µM in test [1]; > 30 µM at Adenosine receptor A1; > 10 µM in test [3]; > 30 µM at Melanocortin receptor 3; > 30 µM in test [4].

Consider `CC[C@@H](CO)NC(=O)[C@@H]1C=C2c3cccc4c3c(cn4C)C[C@H]2N(C)C1` [METHYSERGIDE], for which the AC50 in test [1] is 3.5 µM; on Adenosine receptor A1, > 30 µM; in test [3], 11 µM; at Melanocortin receptor 3, > 30 µM; in test [4], 0.0082 µM.

Take `CNC(=C[N+](=O)[O-])NCCSCc1csc(CN(C)C)n1` [NIZATIDINE]: the AC50 in test [1] was > 10 µM; on Adenosine receptor A1, > 10 µM; in test [3] it was > 10 µM; on Melanocortin receptor 3, > 10 µM; in test [4] it was > 30 µM.

As to `CN1Cc2c(N)cccc2C(c2ccccc2)C1` (configuration not stated) [NOMIFENSINE], the AC50 in test [1] is > 30 µM; in test [2] it was 13 µM; at Adenosine receptor A1, > 30 µM; in test [3], > 30 µM; at Melanocortin receptor 3, > 30 µM.

`CC(CN1c2ccccc2Sc2ccccc21)N(C)C` (configuration not stated) [PROMETHAZINE]: the AC50 was 3 µM in test [1]; 1.7 µM in test [2]; > 30 µM at Adenosine receptor A1; 31.9 µM on Melanocortin receptor 3; 0.5 µM in test [4].

For `CCCc1cc(=O)[nH]c(=S)[nH]1` [PROPYLTHIOURACIL], the AC50 is > 10 µM in test [1]; > 10 µM at Adenosine receptor A1; > 10 µM in test [3]; > 10 µM on Melanocortin receptor 3; > 30 µM in test [4].

Regarding `CC(C)C[C@H](NC(=O)[C@@H](O)[C@H](N)Cc1ccccc1)C(=O)O` [UBENIMEX], the AC50 (in test [1]; in test [2]; in test [3]; at Melanocortin receptor 3; in test [4]) was > 30 µM each time.

In the case of `COc1cc(C(=O)NS(=O)(=O)c2ccccc2C)ccc1Cc1cn(C)c2ccc(NC(=O)OC3CCCC3)cc12` [ZAFIRLUKAST], the AC50 in test [2] is 5.9 µM; on Adenosine receptor A1, > 30 µM; on Melanocortin receptor 3, > 10 µM.
